According to patent US20220106304A1, “Transcription Factor BRN2 Inhibitory Compounds as Therapeutics and Methods for Their Use” (The University of British Columbia, priority 2018, published 2022):

Biological target: T1, BRN2 (Homo sapiens, UniProt P20265)
T1 sequence (P20265 1-443): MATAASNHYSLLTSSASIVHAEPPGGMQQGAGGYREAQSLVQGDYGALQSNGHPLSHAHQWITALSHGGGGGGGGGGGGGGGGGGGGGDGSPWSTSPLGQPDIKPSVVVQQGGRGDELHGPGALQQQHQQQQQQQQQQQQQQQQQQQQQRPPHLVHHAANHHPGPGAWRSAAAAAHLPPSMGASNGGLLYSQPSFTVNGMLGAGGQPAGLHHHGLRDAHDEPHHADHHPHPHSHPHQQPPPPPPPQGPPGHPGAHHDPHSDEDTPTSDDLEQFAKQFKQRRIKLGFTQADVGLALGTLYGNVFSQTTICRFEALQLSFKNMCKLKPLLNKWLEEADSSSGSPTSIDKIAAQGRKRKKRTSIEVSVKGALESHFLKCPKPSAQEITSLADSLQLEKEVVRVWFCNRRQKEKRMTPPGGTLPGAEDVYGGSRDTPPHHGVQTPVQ
Test: cell-based
Conditions: for % BRN2 Inhibition (10 μM): 10 μM compound; for % BRN2 Inhibition (10 μM) / % BRN2 Inhibition (30 μM): 24 hours, 42D^ENZR cells stably expressing BRN2-luciferase reporter; for % BRN2 Inhibition (10 μM) / % BRN2 Inhibition (30 μM) / inhibition at 10 µM / inhibition at 30 µM: negative = activation; for % BRN2 Inhibition (30 μM): 30 μM compound; for inhibition at 10 µM: read-out: % BRN2 Inhibition (10 μM), 10 μM compound, 24 hours, 42D^ENZR cells stably expressing BRN2-luciferase reporter; for inhibition at 30 µM: read-out: % BRN2 Inhibition (30 μM), 30 μM compound, 24 hours, 42D^ENZR cells stably expressing BRN2-luciferase reporter; for cell death (30 μM): cell death = severe toxicity at a low dose
Source text: Decreased expression of luciferase protein is validated via western blot to confirm downregulation and avoid false positive molecules that inhibit luciferase protein activity and not BRN2-drive luciferase expression. Molecules are prioritized by their inhibition potency to measure direct interaction with BRN2 in Step 2.
In TABLES 1 and 2, when a single value is mentioned in columns Met Stab % and T½, it refers to compound's stability in MLM and when two values are given they represent HLM/MLM. There is a distinction in TABLES 1 and 2 difference between “Active” and “Specific” or “Specificity”. Compounds are first tested to quantify inhibition of BRN2 transcriptional activity in a luciferase assay to determine “Activity” at […] and 30 μM concentrations. […] Where data is not available “na” is inserted. Where data has yet to be calculated the notation “nc” is used.

Structure (SMILES) | % BRN2 Inhibition (10 μM) | % BRN2 Inhibition (30 μM) | inhibition at 10 µM | inhibition at 30 µM | cell death (30 μM)
CCn1c(-c2csc(-c3ccccn3)n2)nc2ccccc21 [VPC-18-15] | insoluble | insoluble |  |  | 
Cn1c(-c2ccc(-c3ccccc3)o2)nc2ccc([N+](=O)[O-])cc21 [VPC-18-30, 1-Methyl-6-nitro-2-(5-phenylfuran-2-yl)-1H-benzo[d]imidazole] |  |  | 2.63% | 17.4% | 
Cn1c(-c2ccc(-c3ccc(Br)cc3Cl)o2)nc2ccc(C(F)(F)F)cc21 [VPC-18-34, 2-(5-(4-Bromo-2-chlorophenyl)furan-2-yl)-1-methyl-6-(trifluoromethyl)-1H-benzo[d]imidazole] |  |  | -0.86% | 46.7% | 
Cn1c(-c2csc(-c3ccccc3)n2)nc2ccc(Cl)cc21 [VPC-18-37, 4-(6-Chloro-1-methyl-1H-benzo[d]imidazol-2-yl)-2-phenylthiazole] |  |  | -14.5% | -58.7% | 
c1ccc2oc(-c3csc(N4CC5CC4CO5)n3)cc2c1 (stereo not shown) [VPC-18-38, 5-(4-(Benzofuran-2-yl)thiazol-2-yl)-2-oxa-5-azabicyclo[2.2.1]heptane] |  |  | -51.2% | 67% | 
Cn1c(-c2ccc(-c3ccc(F)cc3F)o2)nc2ccc([N+](=O)[O-])cc21 [VPC-18-39, 2-(5-(2,4-Difluorophenyl)furan-2-yl)-1-methyl-6-nitro-1H-benzo[d]imidazole] |  |  | -150% | -63.1% | 
O=[N+]([O-])c1ccc2nc(-c3ccc(-c4ccc(Br)cc4Cl)o3)[nH]c2c1 [VPC-18-40, 2-(5-(4-Bromo-2-chlorophenyl)furan-2-yl)-6-nitro-1H-benzo[d]imidazole] |  |  | -32.7% | -84.1% | 
Cn1c(-c2ccc(-c3cncnc3)o2)nc2ccccc21 [VPC-18-43, 1-Methyl-2-(5-(pyrimidin-5-yl)furan-2-yl)-1H-benzo[d]imidazole] |  |  | -124% | -83% | 
O=[N+]([O-])c1ccc(-c2nc(-c3cc4ccccc4o3)cs2)cc1 [VPC-18-44, 4-(Benzofuran-2-yl)-2-(4-nitrophenyl)thiazole] |  |  | -45% | -104% | 
NS(=O)(=O)c1ccc2nc(-c3csc(-c4ccccc4F)n3)[nH]c2c1 [VPC-18-46, 2-(2-(2-Fluorophenyl)thiazol-4-yl)-1H-benzo[d]imidazole-6-sulfonamide] |  |  | -69.6% | -158% | 
O=[N+]([O-])c1ccc(-c2nc(-c3cc4ccccc4o3)cs2)o1 [VPC-18-49, 4-(Benzofuran-2-yl)-2-(5-nitrofuran-2-yl)thiazole] |  |  | -48% | -21% | 
Cn1c(-c2ccc(N3CC4CC3CO4)o2)nc2ccccc21 (stereo not shown) [VPC-18-50, 5-(5-(1-Methyl-1H-benzo[d]imidazol-2-yl)furan-2-yl)-2-oxa-5-azabicyclo[2.2.1]heptane] |  |  | -26.6% | 27.5% | 
O=[N+]([O-])c1ccc2cc(-c3csc(-c4ccco4)n3)oc2c1 [VPC-18-52, 2-(Furan-2-yl)-4-(6-nitrobenzofuran-2-yl)thiazole] |  |  | -15.8% | -46% | 
O=[N+]([O-])c1ccc(-c2nc(-c3cc4ccc(F)cc4o3)cs2)o1 [VPC-18-54, 4-(6-Fluorobenzofuran-2-yl)-2-(5-nitrofuran-2-yl)thiazole] |  |  | -60% | -45% | 
O=[N+]([O-])c1ccc2cc(-c3csc(-c4ccc(F)cc4F)n3)oc2c1 [VPC-18-55, 2-(2,4-Difluorophenyl)-4-(6-nitrobenzofuran-2-yl)thiazole] |  |  | -9.94% | -54% | 
Cn1c(-c2csc(-c3ccc(Br)cc3F)n2)nc2ccc(F)cc21 [VPC-18-56, 2-(4-Bromo-2-fluorophenyl)-4-(6-fluoro-1-methyl-1H-benzo[d]imidazol-2-yl)thiazole] | INACTIVE | INACTIVE |  |  | 
Cc1c(-c2csc(-c3ccc(Br)cc3F)n2)oc2cc(F)ccc12 [VPC-18-57, 2-(4-Bromo-2-fluorophenyl)-4-(6-fluoro-3-methylbenzofuran-2-yl)thiazole] | INACTIVE | INACTIVE |  |  | 

Structure (SMILES) | % BRN2 Inhibition (10 μM) | % BRN2 Inhibition (30 μM) | inhibition at 10 µM | inhibition at 30 µM | cell death (30 μM)
Cn1c(-c2ccc(C3CCCO3)o2)nc2ccccc21 (stereo not shown) [VPC-18-58, 1-Methyl-2-(5-(tetrahydrofuran-2-yl)furan-2-yl)-1H-benzo[d]imidazole] | INACTIVE | INACTIVE |  |  | 
Clc1cc(Br)ccc1-c1nc(-c2cc3ccccc3o2)cs1 [VPC-18-59, 4-(Benzofuran-2-yl)-2-(4-bromo-2-chlorophenyl)thiazole] | INACTIVE | INACTIVE |  |  | 
Cn1c(-c2ccc(-c3ccc(Br)cc3Cl)o2)nc2ccccc21 [VPC-18-60] |  |  | 13% | -37% | 
Cn1c(-c2ccc(-c3ccccc3)o2)nc2ccc(C(F)(F)F)cc21 [VPC-18-61] |  |  | -97% | -92% | 
Cn1c(-c2ccc(-c3ccc(C#N)cc3)o2)nc2ccccc21 [VPC-18-62] |  |  | -62% | -110% | 
Cn1c(-c2ccc(-c3cccnc3)o2)nc2ccc(C(F)(F)F)cc21 [VPC-18-64] |  |  | -30% | -59% | 
Cn1c(-c2ccc(-c3ccccc3F)o2)nc2ccc(C(F)(F)F)cc21 [VPC-18-65] |  |  | -52% | -3% | 
Cn1c(-c2ccc(C3=CCNCC3)o2)nc2ccccc21 [VPC-18-67] |  |  | -38% | 8% | 
CN1CCC(c2ccc(-c3nc4ccccc4n3C)o2)CC1 [VPC-18-68] |  |  | 11% | 14% | 
Cn1c(-c2ccc(-c3ccc(F)cc3F)o2)nc2ccc(C(F)(F)F)cc21 [VPC-18-69] |  |  | -8% | 12% | 
Cl.Cn1c(-c2ccc(C3=CCNCC3)o2)nc2ccc(C(F)(F)F)cc21 [VPC-18-70, 1-methyl-2-(5-(1,2,3,6-tetrahydropyridin-4-yl)furan-2-yl)-6-(trifluoromethyl)-1H-benzo[d]imidazole hydrochloride] |  |  | 74% | 100% | cell death
Cn1c(-c2ccc(N3CCC(F)(F)CC3)o2)nc2ccc(C(F)(F)F)cc21 [VPC-18-79] |  |  | -12.3% | 2.4% | 
NC(=O)c1ccc2cc(-c3csc(-c4ccco4)n3)oc2c1 [VPC-18-83] |  |  | -40% | -10% | 
Cl.Clc1ccc2cc(-c3csc(C4=CCNCC4)n3)oc2c1 [VPC-18-95, 4-(6-chlorobenzofuran-2-yl)-2-(1,2,3,6-tetrahydropyridin-4-yl)thiazole hydrochloride] |  |  | 79.8% | 100% | cell death
Clc1ccc2cc(-c3csc(C4=CCNCC4)n3)oc2c1 [VPC-18-97, 4-(6-chlorobenzofuran-2-yl)-2-(1,2,3,6-tetrahydropyridin-4-yl)thiazole] | 65% | 99.95% |  |  | 
FC(F)(F)c1cccc2oc(-c3csc(-c4ccco4)n3)cc12 [VPC-18-101] |  |  | -81% | -43% | 
O=C(NC1(c2ccco2)CC1)c1cc2ccc(C(F)(F)F)cc2o1 [VPC-18-119] |  |  | 69.9% | -25% | 
